Measured values from paper PMC12746157, “Light-Regulated Agonists Spatiotemporally Activating the Vitamin D Receptor Mitigate Psoriasis-like Inflammation in Mice without Inducing Hypercalcemia” (ACS Central Science, 2025).

How the values were obtained:
Assay type in all cases: physicochemical
[1] = UV-Vis absorption spectra and thermal relaxation of the cis isomers in DMSO; settings: 60 μM in 100% DMSO, 37 °C; for λn−π* (cis): after illumination; for λπ–π* (trans): dark
Description: (§1) The UV–vis absorbance spectra of all molecules were measured in the dark and after the application of light of different wavelengths ranging from 365 to 770 nm (Figure A and Figures S1–S3). […] Consequently, violet/UV light below 405 nm efficiently promoted photoisomerization, which produced a dramatic decrease in the π-π* band and a significant increase in the n-π* band at around 445 nm (Table ). […] The proportion of molecules at the PSS in trans isomer upon constant illumination with light at 525 nm and cis at 365 nm was in general above 50%, reaching a remarkable >99% for compound 11d (Table and Figures S4 and S5). […] The greater stability of the trans isomer was consistent with previous quantum mechanical and molecular mechanics predictions. Measuring the photoisomerization properties of compound PhotoVDRM allowed us to determine the photoisomerization quantum yields of the compound by solving a differential equation for photoisomerization. We used MATLAB to perform regression and arrive at the following photoisomerization quantum yields: ϕ365 nm (trans) = 0.0427, ϕ365 nm (cis) = 0.0501, ϕ470 nm (trans) = 0.1857, and ϕ470 nm (cis) = 0.2281 (Figure S9). Compound PhotoVDRM was also evaluated in aqueous buffer used for pharmacological experiments (0.5% DMSO) showing a thermal relaxation of 3 h, almost 7 times faster than in pure DMSO (Figure B). […] A deeper photocharacterization of PhotoVDRM allowed us to measure the kinetics of photoconversion upon constant illumination with two wavelengths and three light intensities (Figure D and Figure S10). […] Indeed, with LED devices producing light at intensities as low as 0.05 mW/mm^2 we were able to transform trans to cis in around 15.5 s. This time was reduced to 6 and 2 s when the light intensity was increased to 0.15 and 0.75 mW/mm^2. […] Therefore, we proceeded to test the ability of the chemical library to activate the VDR under different light conditions.
2. Photochemical characterization. […]
(§2) (200 µL per well). The absorption spectra were recorded from 300 to 600 nm with 2 nm fixed intervals using a Tecan Spark 20M Multimode microplate reader. Initial measurements were performed in the dark, followed by spectra acquired immediately after each 3 min period of light irradiation at different wavelengths using 96-well LED array plates (LEDA Teleopto). Theoretical absorbance spectra corresponding to the pure cis isomer (100%) of each compound were calculated in order to obtain the theoretical percentage of cis isomer at each wavelength, according to the method described by Ernst Fischer (1967). Thermal relaxation kinetics of the experimental cis isomers were assessed in quartz cuvettes (10 mm optical path) containing freshly prepared 50 […]
Dark state absorbance at 365 nm was recorded at 37
ºC using a ThermoFisher Evolution 350 UV-Vis spectrophotometer. Samples were then irradiated for 3 minutes at 365 nm with a CoolLED pE-4000 light sourceto induce trans → cis photoisomerization.. Absorbance at 365 nm was subsequently monitored over 48 h: every 15 min during the first 24 h, and every 60 min during the following 24 h. Relaxation half-lives were determined by fitting the absorbance-time data to a […] exponential model using GraphPad Prism v10.4.1. […]

[2] = Photostationary state (PSS) determination by HPLC-MS in aqueous assay buffer; settings: 21 °C, HPLC-MS, 60 μM, aqueous buffer 0.6% DMSO; for PSS365 (% cis): 3 min illumination 365 nm; for PSS525 (%trans): 3 min illumination 525 nm
Description: as §1
Photostationary state (PSS) determination. In a transparent vial, solutions of the compounds were prepared at a concentration of 60 µM from a 10 mM stock in DMSO, using the assay buffer of pharmacological experiments for dilution. Prior to illumination, a volume of 500 µL was transferred to an amber vial for the "dark" sample. The same procedure was repeated after exposing the transparent vial containing the 60 µM solutions to the following light conditions:
365nm for 3 minutes and 525nm for 3 minutes. […]
difference on isomeric proportions. For each sample, 20 µL was analyzed by HPLC-MS, and the isomer ratios were determined at the isosbestic point.
Isosbestic point determination. The solvent percentage for the elution of each isomer were calculated based on their retention times from HPLC analysis. Subsequently, 50 µM solutions were prepared from the 10 mM DMSO stock solution of each compound using the previously determined HPLC solvent mixture. The UV spectrum for each solution was recorded after illumination at 365 nm (30 seconds), at 400 nm (30 seconds), and at 525 nm (30 seconds). The spectra were overlaid to identify the isosbestic point of maximum intensity.
HPLC conditions. Analytical HPLC was performed on a Thermo Ultimate 3000SD (Thermo Scientific Dionex) coupled to a PDA detector and Mass Spectrometer LTQ XL ESI-ion trap (Thermo Scientific). Cromatographic separations were performed using a ZORBAX Eclipse Plus C18 (4.6 x 150mm; 3.5µm) column. The mobile phase consisted of an isocratic mixture of solvent A (water with 0.05% of formic acid) and solvent B (acetonitrile with 0.05% formic acid) at a 3:7 ratio for compounds 10a-d and a 2:3 ratio for compounds 11a-d and 12a-d. […]

[3] = Proportions of cis and trans at the photostationary state in DMSO from absorbance spectra (Ernst Fischer method)
Description: 2. Photochemical characterization.
as §2, with “A 50 µM solution of each compound in DMSO was dispensed into a transparent 96-well plate (200” for “(200”, “(1967).” for “(1967). Thermal relaxation kinetics of the experimental cis isomers were assessed in quartz cuvettes (10 mm optical path) containing freshly prepared 50”
Table S6. Proportions of cis and trans at the photostationary state in DMSO. […]

| SMILES | t 1/2 (thermal relaxation of cis) [1] [h] | λn−π* (cis) [1] [nm] | λπ–π* (trans) [1] [nm] | PSS365 (% cis) [2] [%] | PSS525 (%trans) [2] [%] | %cis at the photostationary state ([3]; 365 nm) | %trans at the photostationary state ([3]; 365 nm) | %cis at the photostationary state ([3]; 380 nm) | %trans at the photostationary state ([3]; 380 nm) | %cis at the photostationary state ([3]; 405 nm) | %trans at the photostationary state ([3]; 405 nm) | %cis at the photostationary state ([3]; 420 nm) | %trans at the photostationary state ([3]; 420 nm) | %cis at the photostationary state ([3]; 470 nm) | %trans at the photostationary state ([3]; 470 nm) | %cis at the photostationary state ([3]; 500 nm) | %trans at the photostationary state ([3]; 500 nm) | %cis at the photostationary state ([3]; 530 nm) | %trans at the photostationary state ([3]; 530 nm) |
| --- | --- | --- | --- | --- | --- | --- | --- | --- | --- | --- | --- | --- | --- | --- | --- | --- | --- | --- | --- |
| Cc1cc(/N=N/c2cccc(-c3ccc(C(=O)O)cc3C)c2)ccc1OCC(O)C(C)(C)C (centres unmarked) [Compound 11c] | 25.4 | 444 | 364 | 96 | 84 | 97,22% | 2,78% | 94,72% | 5,28% | 61,36% | 38,64% | 59,26% | 40,74% | 31,49% | 68,51% | 28,18% | 71,82% | 22,70% | 77,30% |
| Cc1cc(OCC(O)C(C)(C)C)ccc1/N=N/c1cccc(-c2ccc(C(=O)O)cc2C)c1 (centres unmarked) [Compound 11d] | 17.7 | 444 | 362 | >99 | 61 | 96,79% | 3,21% | 95,58% | 4,42% | 61,42% | 38,58% | 54,69% | 45,31% | 28,11% | 71,89% | 29,74% | 70,26% | 25,59% | 74,41% |
| Cc1cc(/N=N/c2cccc(-c3ccc(CO)cc3)c2)ccc1OCC(O)C(C)(C)C (centres unmarked) [Compound 12a] | 9.1 | 444 | 364 | 80 | 87 | 97,06% | 2,94% | 95,61% | 4,39% | 63,64% | 36,36% | 60,45% | 39,55% | 33,06% | 66,94% | 34,03% | 65,97% | 30,20% | 69,80% |
| Cc1cc(OCC(O)C(C)(C)C)ccc1/N=N/c1cccc(-c2ccc(CO)cc2)c1 (centres unmarked) [Compound 12b] | 6.8 | 444 | 362 | 84 | 84 | 96,19% | 3,81% | 95,15% | 4,85% | 62,30% | 37,70% | 59,96% | 40,04% | 29,61% | 70,39% | 25,15% | 74,85% | 19,72% | 80,28% |
| Cc1cc(OCC(O)C(C)(C)C)ccc1/N=N/c1cccc(-c2ccc(CO)cc2C)c1 (centres unmarked) [Compound 12d] | 8.2 | 446 | 362 | 88 | 82 | 96,92% | 3,08% | 95,77% | 4,23% | 63,77% | 36,23% | 60,13% | 39,87% | 32,14% | 67,86% | 33,18% | 66,82% | 29,47% | 70,53% |
